Structures can show the parent of a compound that is named as a salt.
Molecular target: T1, PHD2 (Homo sapiens, UniProt Q9GZT9)
T1 construct: FLAG-tagged full length PHD2 expressed in and purified from baculovirus-infected Sf9 cells; FLAG; made in house; host or cells: baculovirus-infected Sf9 cells
Assay: PHD2 / HIF-1α peptide hydroxylation assay, time resolved fluorescence (VHL complex detection)
Type: biochemical
Details: FLAG-tagged full length PHD2; 0.2 μM 2-oxoglutarate, 0.5 μM HIF-1α peptide; read-out: PHD2 Activity (PHD2 binding activity expressed as IC50 (nM))
Outline: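 Sf9-expressed FLAG-tagged full-length PHD2 (0.15 μg/ml) preincubated with compound 30 min at room temperature in Tris pH 7.4 buffer with 10 μM ferrous sulfate, 1 mM ascorbate and catalase. Reaction started with 0.2 μM 2-oxoglutarate and 0.5 μM biotinylated HIF-1α peptide (final); hydroxylation detected by time-resolved fluorescence via VHL complex binding.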

T1 sequence (Q9GZT9 whole entry): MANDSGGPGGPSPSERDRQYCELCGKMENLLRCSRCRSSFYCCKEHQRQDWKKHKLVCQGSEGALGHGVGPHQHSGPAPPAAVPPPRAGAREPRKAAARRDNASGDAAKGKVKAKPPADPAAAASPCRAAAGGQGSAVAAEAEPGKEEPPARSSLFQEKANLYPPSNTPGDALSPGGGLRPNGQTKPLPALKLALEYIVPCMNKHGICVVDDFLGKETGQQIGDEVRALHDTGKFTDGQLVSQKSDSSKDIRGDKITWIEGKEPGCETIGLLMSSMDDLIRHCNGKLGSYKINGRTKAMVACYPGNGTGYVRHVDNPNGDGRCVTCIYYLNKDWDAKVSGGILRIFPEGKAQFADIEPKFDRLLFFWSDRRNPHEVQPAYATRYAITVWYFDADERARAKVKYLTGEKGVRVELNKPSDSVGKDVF

IC50	Compound
≤ 10 nM	O=C(NCc1ccc(Oc2ccc(F)cc2)cc1)c1cnc(-n2cccn2)nc1O [Example 99, N-[4-(4-fluorophenoxy)benzyl]-4-hydroxy-2-(1H-pyrazol-1-yl)pyrimidine-5-carboxamide]
≤ 10 nM	Cc1ccccc1Oc1ccc(CNC(=O)c2cnc(-n3cccn3)nc2O)cc1 [Example 100, 4-hydroxy-N-[4-(2-methylphenoxy)benzyl]-2-(1H-pyrazol-1-yl)pyrimidine-5-carboxamide]
≤ 10 nM	O=C(NCc1ccc2c(c1)CCO2)c1cnc(-n2cccn2)nc1O [Example 101, N-(2,3-dihydro-1-benzofuran-5-ylmethyl)-4-hydroxy-2-(1H-pyrazol-1-yl)pyrimidine-5-carboxamide]
≤ 10 nM	O=C(NC1c2ccccc2-c2ccccc21)c1cnc(-n2cccn2)nc1O [Example 102, N-9H-fluoren-9-yl-4-hydroxy-2-(1H-pyrazol-1-yl)pyrimidine-5-carboxamide]
10 to 100 nM	COC(=O)c1ccc(CNC(=O)c2cnc(-n3cccn3)nc2O)cc1 [Example 103, methyl 4-[({[4-hydroxy-2-(1H-pyrazol-1-yl)pyrimidin-5-yl]carbonyl}amino)methyl]benzoate]
1000 to 10000 nM	O=C(O)CNC(=O)c1cnc(-n2cccn2)nc1O [Example 104, N-{[4-hydroxy-2-(1H-pyrazol-1-yl)pyrimidin-5-yl]carbonyl}glycine]
≤ 10 nM	O=C(NCc1ccc(-c2ccccc2)nc1)c1cnc(-n2cccn2)nc1O [Example 105, 4-Hydroxy-N-[(6-phenylpyridin-3-yl)methyl]-2-(1H-pyrazol-1-yl)pyrimidine-5-carboxamide]
≤ 10 nM	O=C(NCc1ccc(-c2ccccc2F)nc1)c1cnc(-n2cccn2)nc1O [Example 106, N-{[6-(2-fluorophenyl)pyridin-3-yl]methyl}-4-hydroxy-2-(1H-pyrazol-1-yl)pyrimidine-5-carboxamide]
≤ 10 nM	O=C(NCc1ccc(-c2cccc(F)c2)nc1)c1cnc(-n2cccn2)nc1O [Example 107, N-{[6-(3-fluorophenyl)pyridin-3-yl]methyl}-4-hydroxy-2-(1H-pyrazol-1-yl)pyrimidine-5-carboxamide trifluoroacetate (salt)]
≤ 10 nM	O=C(NCc1ccc(-c2ccc(F)cc2)nc1)c1cnc(-n2cccn2)nc1O [Example 108, N-{[6-(4-fluorophenyl)pyridin-3-yl]methyl}-4-hydroxy-2-(1H-pyrazol-1-yl)pyrimidine-5-carboxamide]
10 to 100 nM	O=C(NCc1cnc(-c2ccc(F)cc2)cn1)c1cnc(-n2cccn2)nc1O [Example 109, N-{[5-(4-fluorophenyl)pyrazin-2-yl]methyl}-4-hydroxy-2-(1H-pyrazol-1-yl)pyrimidine-5-carboxamide]
10 to 100 nM	N#Cc1ccc(CNC(=O)c2cnc(-n3cccn3)nc2O)cn1 [Example 110, N-[(6-cyanopyridin-3-yl)methyl]-4-hydroxy-2-(1H-pyrazol-1-yl)pyrimidine-5-carboxamide]
≤ 10 nM	COc1ccc(C(NC(=O)c2cnc(-c3cccnn3)nc2O)c2ccc(C#N)nc2)cc1 (stereo not drawn) [Example 112, N-[(6-cyanopyridin-3-yl)(4-methoxyphenyl)methyl]-4-hydroxy-2-pyridazin-3-ylpyrimidine-5-carboxamide]
≤ 10 nM	C[C@H](NC(=O)c1cnc(-n2cccn2)nc1O)c1ccc(C#N)cc1 [Example 113, N-[(1S)-1-(4-cyanophenyl)ethyl]-4-hydroxy-2-(1H-pyrazol-1-yl)pyrimidine-5-carboxamide]
≤ 10 nM	COc1ccc(C(NC(=O)c2cnc(-c3cccnn3)nc2O)c2ccc(C)nc2)cc1 (stereo not drawn) [Example 114, 4-Hydroxy-N-[(4-methoxyphenyl)(6-methylpyridin-3-yl)methyl]-2-pyridazin-3-ylpyrimidine-5-carboxamide]
≤ 10 nM	COc1ccc(C(NC(=O)c2cnc(-c3cccnn3)nc2O)c2cccc(C)n2)c(OC)c1 (stereo not drawn) [Example 115, N-[(2,4-Dimethoxyphenyl)(6-methylpyridin-2-yl)methyl]-4-hydroxy-2-pyridazin-3-ylpyrimidine-5-carboxamide]
≤ 10 nM	Cc1csc(C(C)NC(=O)c2cnc(-n3cccn3)nc2O)n1 (stereo not drawn) [Example 117, 4-hydroxy-N-[1-(4-methyl-1,3-thiazol-2-yl)ethyl]-2-(1H-pyrazol-1-yl)pyrimidine-5-carboxamide hydrochloride]
10 to 100 nM	CC(NC(=O)c1cnc(-n2cccn2)nc1O)c1ccccn1 (stereo not drawn) [Example 118, 4-hydroxy-2-(1H-pyrazol-1-yl)-N-[1-(pyridin-2-yl)ethyl]pyrimidine-5-carboxamide]
10 to 100 nM	O=C(N[C@H]1CCc2ccccc21)c1cnc(-n2cccn2)nc1O [Example 119, N-[(1S)-2,3-dihydro-1H-inden-1-yl]-4-hydroxy-2-(1H-pyrazol-1-yl)pyrimidine-5-carboxamide]
≤ 10 nM	O=C(N[C@H](c1ccccc1)[C@@H](O)c1ccccc1)c1cnc(-n2cccn2)nc1O [Example 120, 4-hydroxy-N-[(1R,2S)-2-hydroxy-1,2-diphenylethyl]-2-(1H-pyrazol-1-yl)pyrimidine-5-carboxamide]

IC50	Compound
≤ 10 nM	C[C@H](NC(=O)c1cnc(-n2cccn2)nc1O)c1ccc2ccccc2c1 [Example 121, 4-hydroxy-N-[(1S)-1-(naphthalen-2-yl)ethyl]-2-(1H-pyrazol-1-yl)pyrimidine-5-carboxamide]
10 to 100 nM	O=C(N[C@H](CO)c1ccccc1)c1cnc(-n2cccn2)nc1O [Example 122, 4-hydroxy-N-[(1S)-2-hydroxy-1-phenylethyl]-2-(1H-pyrazol-1-yl)pyrimidine-5-carboxamide]
≤ 10 nM	O=C(N[C@@H](CO)c1ccccc1)c1cnc(-n2cccn2)nc1O [Example 123, 4-hydroxy-N-[(1R)-2-hydroxy-1-phenylethyl]-2-(1H-pyrazol-1-yl)pyrimidine-5-carboxamide]
≤ 10 nM	O=C(N[C@@H](C(=O)O)c1ccccc1)c1cnc(-n2cccn2)nc1O [Example 124, (2R)-({[4-hydroxy-2-(1H-pyrazol-1-yl)pyrimidin-5-yl]carbonyl}amino)(phenyl)ethanoic acid]
≤ 10 nM	O=C(NC(c1ccccc1)c1ccccn1)c1cnc(-n2cccn2)nc1O (stereo not drawn) [Example 125, 4-hydroxy-N-[phenyl(pyridin-2-yl)methyl]-2-(1H-pyrazol-1-yl)pyrimidine-5-carboxamide trifluoroacetate (salt)]
≤ 10 nM	COc1cccc([C@H](C)NC(=O)c2cnc(-n3cccn3)nc2O)c1 [Example 126, 4-hydroxy-N-[(1S)-1-(3-methoxyphenyl)ethyl]-2-(1H-pyrazol-1-yl)pyrimidine-5-carboxamide]
≤ 10 nM	O=C(N[C@H](c1ccccc1)[C@H](O)c1ccccc1)c1cnc(-n2cccn2)nc1O [Example 127, 4-hydroxy-N-[(1R,2R)-2-hydroxy-1,2-diphenylethyl]-2-(1H-pyrazol-1-yl)pyrimidine-5-carboxamide]
≤ 10 nM	CC(C)(O)[C@H](NC(=O)c1cnc(-n2cccn2)nc1O)c1ccccc1 [Example 128, 4-hydroxy-N-[(1R)-2-hydroxy-2-methyl-1-phenylpropyl]-2-(1H-pyrazol-1-yl)pyrimidine-5-carboxamide]
≤ 10 nM	C[C@H](NC(=O)c1cnc(-n2cccn2)nc1O)c1ccc(Oc2ccccc2)cc1 [Example 129, 4-hydroxy-N-[(1S)-1-(4-phenoxyphenyl)ethyl]-2-(1H-pyrazol-1-yl)pyrimidine-5-carboxamide]
10 to 100 nM	O=C(NCc1ccc(C(F)(F)F)cn1)c1cnc(-n2cccn2)nc1O [Example 130, 4-hydroxy-2-(1H-pyrazol-1-yl)-N-{[5-(trifluoromethyl)pyridin-2-yl]methyl}pyrimidine-5-carboxamide]
≤ 10 nM	CC(C)C(NC(=O)c1cnc(-n2cccn2)nc1O)c1ccccc1 (stereo not drawn) [Example 131, 4-hydroxy-N-(2-methyl-1-phenylpropyl)-2-(1H-pyrazol-1-yl)pyrimidine-5-carboxamide]
≤ 10 nM	C[C@H](NC(=O)c1cnc(-n2cccn2)nc1O)c1ccc2c(c1)OCCO2 [Example 132, N-[(1S)-1-(2,3-dihydro-1,4-benzodioxin-6-yl)ethyl]-4-hydroxy-2-(1H-pyrazol-1-yl)pyrimidine-5-carboxamide]
≤ 10 nM	CC[C@H](NC(=O)c1cnc(-n2cc(C)cn2)nc1O)c1ccccc1 [Example 133, 4-hydroxy-2-(4-methyl-1H-pyrazol-1-yl)-N-[(1S)-1-phenylpropyl]pyrimidine-5-carboxamide]
≤ 10 nM	COc1ccc([C@H](C)NC(=O)c2cnc(-n3cc(C)cn3)nc2O)cc1 [Example 134, 4-hydroxy-N-[(1S)-1-(4-methoxyphenyl)ethyl]-2-(4-methyl-1H-pyrazol-1-yl)pyrimidine-5-carboxamide]
10 to 100 nM	O=C(NC1CCCCC1)c1cnc(-c2cccnn2)nc1O [Example 135, N-cyclohexyl-4-hydroxy-2-(pyridazin-3-yl)pyrimidine-5-carboxamide]
≤ 10 nM	O=C(NC(c1ccccc1)c1ccccn1)c1cnc(-c2cccnn2)nc1O (stereo not drawn) [Example 136, 4-hydroxy-N-[phenyl(pyridin-2-yl)methyl]-2-pyridazin-3-ylpyrimidine-5-carboxamide trifluoroacetate (salt)]
≤ 10 nM	C[C@H](NC(=O)c1cnc(-c2cccnn2)nc1O)c1ccc(Oc2ccccc2)cc1 [Example 137, 4-hydroxy-N-[(1S)-1-(4-phenoxyphenyl)ethyl]-2-(pyridazin-3-yl)pyrimidine-5-carboxamide]
≤ 10 nM	O=C(N[C@H](c1ccccc1)[C@@H](O)c1ccccc1)c1cnc(-c2cccnn2)nc1O [Example 138]
≤ 10 nM	O=C(N[C@H](c1ccccc1)[C@H](O)c1ccccc1)c1cnc(-c2cccnn2)nc1O [Example 139, 4-hydroxy-N-[(1R,2R)-2-hydroxy-1,2-diphenylethyl]-2-(pyridazin-3-yl)pyrimidine-5-carboxamide]

Reference: patent publication US8278304B2, “Substituted 4-hydroxypyrimidine-5-carboxamides” (Merck Sharp & Dohme Corp., priority 2008, dated 2012)
